Experiment [1] deals with Salmonella carrying the TS7::sfGFP reporter plasmid. Briefly: Toehold switch reporter assay, flow cytometry. The experiment is classed as cell-based, Salmonella enterica serovar Typhimurium strain SL1344. The following applies: 4 h. How it is done: (§1) Overnight cultures of respective bacterial strains (listed in Table S5) were diluted 1:100 in fresh MHB and grown to OD600 0.3. Overnight and secondary cultures were prepared with or without chloramphenicol (20 µg/mL) depending on the antibiotic resistance profile of the strain. Ninty-five microliters of the 0.3 OD600 bacterial suspension was distributed in the 96-well plate and mixed with 5 µL water or 20× CPP PNA working solutions (150 µM, 100 µM or 50 µM stocks in water). An equivalent volume of water was added to the bacteria to serve as untreated control. For testing the activity in other growth media (M9 minimal medium and LB), the bacteria were cultured in the respective media and treated as described above.
(§2) The PNA-treated samples were incubated in the plate reader for 4–24 h at 37°C, with continuous double-orbital shaking (237 counts per minute). The fluorescence (λex 480 nm/λem 510 nm) and OD600 were recorded in a Synergy H1 plate reader (Biotek) by measuring every 20 min. The bacteria were sampled at various time points post-treatment and further analyzed by flow cytometry.
(§3) Bacterial cells were treated as described above, fixed with 4% paraformaldehyde (PFA) in phosphate-buffered saline (PBS) after the indicated time points, and stained with 1 µg/mL DAPI for flow cytometric measurement of DAPI-positive bacterial cells. Cell suspensions were diluted by a factor of ~100–1,000 in PBS and sampled from 96-well plates to achieve ~2,000 counts/s for flow cytometric measurements. Flow cytometry was performed using the Agilent Novocyte flow cytometer with a high-throughput sampler, and 100,000 events were recorded per sample. The DAPI fluorescence was detected using the Pacific Blue channel; sfGFP and mNeon were detected in the FITC channel, and mCherry fluorescence in the PE-Texas Red channel. The lower threshold for FSC-H was set to 2,000 to eliminate the potential artifacts from smaller particles such as dust, bubbles, or cell debris. The wild-type strains without plasmids served as a control to detect the background fluorescence, termed bacterial background. A contour plot with FSC and SSC, each with bins defined on a logarithmic scale was used to select singlets. The gating strategy is described in Fig.S6. The median fluorescence intensity was used for calculating the fold upregulation of fluorescence. Flow cytometry data sets were analyzed using the Novocyte software (Agilent).
(§4) Fold upregulation in median fluorescence intensity (FI) from flow cytometry was calculated as follows:
(§5) fold upregulation = FI (sample)−FI(bacterial background)/FI (water control)−FI(bacterial background)

In experiment [2] the test system is Salmonella ΔsbmA mutant carrying TS7-Mut_9::sfGFP. Briefly: Toehold switch reporter assay, flow cytometry, ΔsbmA mutant. Type of experiment: cell-based, Salmonella enterica serovar Typhimurium. To be noted: 5 µM, 4 h. From the text:
To confirm that activation of the toehold-switch reporter correlates with successful uptake of PNAs, we used a Salmonella ΔsbmA mutant strain unable to express the inner membrane transporter SbmA. […] In the ΔsbmA strain, treatment with KFF-PNA_toe triggered only marginal GFP expression in a small subpopulation of cells (ca 20%) as opposed to nearly 100% of all cells in the corresponding wild-type strain (Fig. 6A). The overall fluorescence intensity (FI) of the ΔsbmA mutant was also much lower than the wild-type strain (Fig. 6B).
Fig 6 Flow cytometric analysis of CPP-PNA uptake using the toehold switch reporter in a ΔsbmA mutant of Salmonella. […] (B) Median fluorescence intensity values for water-treated control (Control, black) and PNA-treated (KFF-PNA_toe, orange) samples are given in the plots. […]
Bacterial cells were treated as described above, fixed with 4% paraformaldehyde (PFA) in phosphate-buffered saline (PBS) after the indicated time points, and stained with 1 µg/mL DAPI for flow cytometric measurement of DAPI-positive bacterial cells. […] Flow cytometry was performed using the Agilent Novocyte flow cytometer with a high-throughput sampler, and 100,000 events were recorded per sample. The DAPI fluorescence was detected using the Pacific Blue channel; sfGFP and mNeon were detected in the FITC channel, and mCherry fluorescence in the PE-Texas Red channel. […]
A general note: In a reporter assay the amount or activity of a reporter protein is the signal.

The subject of experiment [3] is Salmonella, UPEC 536, E. coli MG1655 and BW25113 expressing TS7-Mut_9::sfGFP. The experiment is described as follows: Toehold switch reporter assay, flow cytometry, statements for all strains. The experiment is classed as cell-based, Salmonella enterica; E. coli. The following applies: CPP conjugated to PNA_toe; 5 µM; measured at 4, 6 and 17 h; all strains. How it is done:
According to previous RNA-seq analyses ([12], [13], [22]), CPP-PNAs can strongly downregulate target mRNAs within 15 min. […] We therefore repeated the screen conducted and assayed fluorescence by flow cytometry at 4, 6, and 17 h post-treatment. […] The level of upregulation observed in the E. coli K12 strains was again substantially lower than in Salmonella and UPEC 536. […] This might be related to the stability of KFF in the culture media.
Fig 9 Flow cytometric analysis of fluorescence of sfGFP informs on delivery efficiency of CPPs. Bacterial cultures expressing the TS7-Mut_9::sfGFP reporter construct treated with the indicated CPP-PNA_toe constructs at 5 µM each. The median fluorescence intensity of sfGFP was measured after 4 h (black bars), 6 h (dark gray bars), and 17 h (light gray bars) of treatment using flow cytometry. Relative upregulation of sfGFP is shown and was calculated by dividing the median fluorescence intensity of the test samples by the median fluorescence intensity of the control samples, to which water was added. Error bars indicate the standard deviation calculated from two independent experiments.
as §1, §3, §4, §5

The test system of experiment [4] is E. coli BW25113 expressing TS7-Mut_9::sfGFP. Briefly: Toehold switch reporter assay, flow cytometry. The experiment is classed as cell-based. To be noted: CPP conjugated to PNA_toe, 5 µM, 17 h. The procedure:
Overnight cultures of respective bacterial strains (listed in Table S5) were diluted 1:100 in fresh MHB and grown to OD600 0.3. Overnight and secondary cultures were prepared with or without chloramphenicol (20 µg/mL) depending on the antibiotic resistance profile of the strain. Ninty-five microliters of the 0.3 OD600 bacterial suspension was distributed in the 96-well plate and mixed with 5 µL water or 20× CPP PNA working solutions (150 µM, 100 µM or 50 µM stocks in water). An equivalent volume of water was added to the bacteria to serve as untreated control. […]
as §2
Bacterial cells were treated as described above, fixed with 4% paraformaldehyde (PFA) in phosphate-buffered saline (PBS) after the indicated time points, and stained with 1 µg/mL DAPI for flow cytometric measurement of DAPI-positive bacterial cells. […] Flow cytometry was performed using the Agilent Novocyte flow cytometer with a high-throughput sampler, and 100,000 events were recorded per sample. […]

The next experiment concerns bacteria. The following applies: CPP conjugated to anti-acpP PNA; ref [13]; cited from earlier work. An excerpt:
For example, we observed a rapid but transient increase in fluorescence for some CPPs (e.g., KFF) and a sustained increase for others (e.g., RXR). This variation can likely be explained by the chemistry and stability of these carriers. […] Therefore, the different dynamics in fluorescence increase c ...

Regarding KFFKFFKFFK [KFF-PNA_toe], the “Upregulation of the reporter (median fluorescence vs water control)” value was 6- to 8 fold in experiment [1] (TS7-Mut_9::sfGFP, 5 µM, Luria broth (LB)) and “around 30 fold” in experiment [1] (original TS7::sfGFP, MHB). Besides, the “Activation of the reporter (median fluorescence vs water control)” value in experiment [1] (TS7-Mut_9::sfGFP, 5 µM, M9 minimal medium) is given as 50- to 60 fold; in experiment [1] (TS7-Mut_9::sfGFP, 5 µM, MHB, two independent experiments), 50- to 60 fold. Moreover, the “Activation of the reporter compared with the original switch” value was “no improvement over the original switch” in experiment [1] (TS7-Mut_13::sfGFP, 5 µM, MHB) and “no improvement over the original switch” in experiment [1] (TS7-Mut_18::sfGFP, 5 µM, MHB). In addition, the GFP positive population is approximately 100% in experiment [1] (wild-type, TS7-Mut_9::sfGFP, 5 µM) and approximately 20% in experiment [2].
For “RRRQRRKKRGY [Seq118, cell-penetrating peptide …]”, the “Dynamics of sfGFP upregulation” value in experiment [3] is reported as “only showed upregulation at the 17 h time point”. In addition, the “Reporter activation (fold upregulation of sfGFP vs water control)” value in experiment [4] is “fivefold”.
On to “RXRRXRRXRRXRXB [RXR-acpP, RXR conjugated to anti-acpP PNA …]”, for which the “Time after which bacteria are eradicated” value in the experiment on bacteria was 15 min.

Values taken from paper PMC12017328, “RNA toehold switch-based reporter assay to assess bacterial uptake of antisense oligomers” (mBio, 2025).
